Source: patent US8563567B2, “Substituted heterocyclic compounds” (ArQule, Inc., priority 2009, dated 2013)
Counter-ions that a name gives are not always drawn.

Assays:
[1] = system: MDA-MB-231; experiment: MTS assay, MDA-MB-231; type: cell-based; details: Homo sapiens, MDA-MB-231, 72 h
Procedure: (§1) Cells were maintained at 37° C., 5% CO2 in RPMI media supplemented with 1% fetal bovine serum, penicillin/streptomycin and fungizone (Invitrogen). Cells were seeded into 96-well tissue culture plates at 3000 per well and cultured at 37° C. for 18 h. Test compounds were dissolved and diluted to 300× in DMSO then diluted 1:40 in DMEM. Cells were incubated with test compounds for 72 hours followed by incubation with tetrazolium compound (3-(4,5-dimethylthiazol-2-yl)-5-(3-carboxymethoxyphenyl)-2-(4-sulfophenyl)-2H-tetrazolium, inner salt; MTS) and the electron coupling reagent, phenazine methosulfate (PMS) for 4 hours. […] The ability of compounds to inhibit cell growth in this assay is correlated with the reduction of dehydrogenase enzyme activity found in metabolically active cells. The measurement of the absorbance of the formazan was assessed using an ENVISION™ (Perkin Elmer) microplate reader at 492 nm. The calculated IC50 value is the concentration of the test compound that causes a 50% decrease in the absorbance.

[2] = system: DLD-1; experiment: MTS assay, DLD-1; type: cell-based; details: Homo sapiens, DLD-1, 72 h
Procedure: as §1

[3] = molecular target: Abl (T315I) (Homo sapiens, UniProt P00519, T315I); experiment: Abl kinase activity assay (fluorescent ELISA, AblTide substrate); type: biochemical
Procedure: The disclosed compounds were assayed for their ability to inhibit the activity of ABL kinase. Nunc Maxisorb plates are coated with streptavidin by overnight incubation with 100 μL per well of 1 μg/mL streptavidin in DPBS. Prior to the start of the experiment, the plates are washed with TBST (3×200 μL) and blocked for at least 3 hours by adding 150 μL of 5% BSA/TBST. The plates are washed with TBST (3×200 μL/well) and left dry immediately before the capture step.
The test articles and controls (Gleevec) are prepared using the following assay buffer @ 10× desired final concentration (50 mM Tris pH 7.0, 0.02 mg/ml BSA, 10 mM MgCl2, 0.1 mM Na3VO4, 1 mM EGTA, 0.01% NP-40, 1 mM DTT in 10% glycerol/water). In a reaction plate are added rapidly 5 μL test article (or control) and 30 μL ABL or ABL T315I (0.089 nM final concentration, in the above buffer). The plate is incubated for 20 minutes. To the reaction plate is added ATP (100 μM final concentration) and AblTide (128 nM final concentration) in a volume of 15 μL. The plate is incubated at room temperature for one hour.
From the reaction plate, 40 μL is transferred to the streptavidin coated plate. The capture plate is incubated at room temperature for 30 minutes then washed 3× with TBST. To the capture plate is added 100 μL/well of Cell Signaling anti-phospho tyrosine at a dilution of 1:3000 in 2% BSA/TBST. The plate is incubated for two hours at room temperature then washed 3× with TBST. To the capture plate is added 100 μL/well of Alkaline Phosphatase Tagged Goat anti Mouse Antibody at a dilution of 1:4000 in 2% BSA/TBST. The plate is incubated for one hour at room temperature then washed 3× with TBST.
The fluorescent readout was initiated by the addition of 100 μL/well of Attophos reagent (6 mg/10 mL). The reading was done on the Perkin Elmer Envision system.

[4] = molecular target: T1, FGFR2 (N549H) (Homo sapiens, UniProt P21802, N549H); experiment: FGFR2 kinase activity assay (fluorescent ELISA); type: biochemical
T1 construct: purchased Millipore 14-742
T1 sequence (P21802 22-821 N549H): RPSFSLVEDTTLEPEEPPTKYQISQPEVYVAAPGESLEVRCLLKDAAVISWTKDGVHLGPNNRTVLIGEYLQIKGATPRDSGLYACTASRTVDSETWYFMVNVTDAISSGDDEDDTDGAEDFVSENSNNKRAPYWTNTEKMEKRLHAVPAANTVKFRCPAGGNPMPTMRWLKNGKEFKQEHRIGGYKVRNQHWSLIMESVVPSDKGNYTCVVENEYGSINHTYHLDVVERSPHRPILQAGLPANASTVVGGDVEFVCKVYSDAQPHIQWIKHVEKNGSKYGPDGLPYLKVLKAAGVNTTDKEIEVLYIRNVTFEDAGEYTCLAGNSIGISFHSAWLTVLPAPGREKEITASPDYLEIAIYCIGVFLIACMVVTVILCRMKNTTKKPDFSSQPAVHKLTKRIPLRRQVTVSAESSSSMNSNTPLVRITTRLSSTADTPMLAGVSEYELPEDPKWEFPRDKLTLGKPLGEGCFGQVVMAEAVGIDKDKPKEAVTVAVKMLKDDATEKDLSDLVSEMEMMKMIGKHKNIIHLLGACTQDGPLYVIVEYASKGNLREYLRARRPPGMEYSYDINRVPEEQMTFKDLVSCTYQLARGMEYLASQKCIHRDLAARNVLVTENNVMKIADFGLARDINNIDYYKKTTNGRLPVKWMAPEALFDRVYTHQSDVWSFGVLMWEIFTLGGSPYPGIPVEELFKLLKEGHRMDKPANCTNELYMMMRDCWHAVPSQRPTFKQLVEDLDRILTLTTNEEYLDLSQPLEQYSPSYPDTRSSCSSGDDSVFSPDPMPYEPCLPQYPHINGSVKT
Procedure: The enzymatic assays described herein are conducted according to the following procedures from commercially available reagents. In one, non limiting, example, a fluorescent ELISA assay is used to identify and characterize inhibitors of FGFR2 kinase as described herein. This heterogeneous assay utilizes a biotinylated peptide with a tyrosine motif as a substrate and an anti-phospho-tyrosine antibody to measure phosphorylation of the substrate. The reaction is initiated by adding the test compound, 37 μM Pyk2 substrate (Midwest Biotech, Cat. # MBT2383), 12.5 μM ATP (Roche, Cat. #11 140 965 001) and 0.5 μM FGFR2 enzyme (Millipore, Cat. #14-742) sequentially to a non-binding polypropylene V-well plate. All reagents are in an assay buffer consisting of: 50 mM Tris-HCL, 0.02 mg/ml BSA, 10 mM MgCl2, 0.1 mM Na3VO4, 1 mM EGTA, 75 μM ATP, 0.01% NP-40, 2 mM DTT and 10% glycerol. The reaction is incubated for 60 minutes. As the reaction proceeds, FGFR2 phosphorylates tyrosines in the peptide. The reaction mixture is then moved to a blocked streptavidin-coated Nunc Maxisorb plate (coated with 100 ng streptavidin from Pierce (Cat. #15-124) per well), allowing for the capture of the biotinylated peptide. Peptides are captured for 30 minutes at room temperature, the phosphorylation of peptides continues during this phase. The reaction is stopped by washing the streptavidin-coated plate 6 times with TBST. Phosphorylated peptide is detected by adding anti-phospho-tyrosine antibody (Cell Signaling, Cat. #9411, diluted 1:3000) to the streptavidin-coated plate. Unbound anti-phospho-tyrosine antibody is removed by washing the streptavidin-coated plate 6 times with TBST. Secondary detection is performed using alkaline phosphatase tagged goat anti-mouse antibody (Pierce, Cat. #31320, diluted 1:4000) for one hour. Unbound secondary antibody is removed by washing the streptavidin-coated plate 6 times with TBST. The fluorescent readout is initiated by adding to the streptavidin-coated plate Promega Attophos substrate (Promega, Cat. # S1000, dilution=6 mg/10 ml), which, when dephosphorylated by alkaline phosphatase, emits a fluorescent signal of 595 nm in wavelength when excited by a signal of 400 nm in wavelength. The reading of the 595 nm signal is done on the Perkin Elmer Envision system. Compounds which prevent FGFR2 from phosphorylating the peptide result in a lower fluorescent signal. The 595 nm fluorescent signal is directly proportional to the activity of FGFR2. Thus, the inhibition of FGFR2 by compounds is monitored by the decrease in the 595 nm fluorescent signal.

Structure (SMILES)	melting point [°C]	other results
Cl.c1cc2c3c(c1)c(-c1ccnc(NCC4CCNCC4)n1)cn3CCC2	192 to 194	
Cl.c1cc2c3c(c1)c(-c1nnnn1C1CCNCC1)cn3CCC2	198 to 200	
CCOC(=O)CNC(=O)N1CCC(CNc2nccc(-c3cn4c5c(cccc35)CCC4)n2)CC1 (as salt: trifluoroacetate) [Compound 34, ethyl 2-(4-((4-(5,6-dihydro-4H-pyrrolo[3,2,1-ij]quinolin-1-yl)pyrimidin-2-ylamino)methyl)piperidine-1-carboxamido)acetate]	170 to 172	
O=S(=O)(c1ccc(Cl)cc1)N1CCC(CNc2nccc(-c3cn4c5c(cccc35)CCC4)n2)CC1 (as salt: trifluoroacetate) [Compound 35, N-((1-(4-chlorophenylsulfonyl)piperidin-4-yl)methyl)-4-(5,6-dihydro-4H-pyrrolo[3,2,1-ij]quinolin-1-yl)pyrimidin-2-amine]	140 to 142	
CC(C)(C)C(=O)N1CCC(CNc2nccc(-c3cn4c5c(cccc35)CCC4)n2)CC1 (as salt: trifluoroacetate) [Compound 36, 1-(4-((4-(5,6-dihydro-4H-pyrrolo[3,2,1-ij]quinolin-1-yl)pyrimidin-2-ylamino)methyl)piperidin-1-yl)-2,2-dimethylpropan-1-one]	170 to 172	
O=c1[nH][nH]c(-c2ccc3ccccc3c2)c1-c1cn2c3c(cccc13)CCC2 [Compound 13, 4-(5,6-dihydro-4H-pyrrolo[3,2,1-ij]quinolin-1-yl)-5-(2-naphthyl)-1,2-dihydro-3H-pyrazol-3-one]		inhibition at 10 µM [1]: 46%; inhibition at 10 µM [2]: 61%; inhibition at 10 µM [3]: 37%; inhibition at 30 µM [4]: 94%
